pIC50: −log10 of the molar value. Entries after “also recorded” stand apart in the source; their conditions may differ. Like-named read-outs stand apart in the source and are kept apart here. Numbered stars: 1 amine (or outer) side, 2 acyl side, 3 side chain; on linkers, the order of the positions; unused ones are H or OH. Square brackets hold non-standard residues; d marks the D form. Peptide text beside a SMILES is read from it. LeuΨ(S-CHOHCH2)Ala = CC(C)C[C@H](N[*:1])[C@@H](O)C[C@@H](C)C(=O)[*:2]; Sta = CC(C)C[C@H](N)[C@@H](O)CC(=O)O
Columns and labels:
[1] = tested on: explants of rat aortae; assay: rat aortic ring model of angiogenesis (microvessel outgrowths); format: cell-based, Sprague Dawley rats
Experimental: Twenty four well tissue culture grade plates (Nalgene International, NY) were covered with […] of Matrigel (Becton-Dickinson, Bedford, Mass.) and allowed to gel for 30 min at 37° C., 5% CO2. Briefly, thoracic aortae were excised from 9 month-old Sprague Dawley rats. After removing the fibroadipose tissue, arteries were sectioned into 1 mm long cross sections, rinsed 5 times with EBM (Clonetics Corp.) containing 4% fetal bovine serum (FBS) and placed on the Matrigel coated wells. Artery rings were covered with an additional […] of Matrigel. After polymerization the Matrigel was covered with 1 mL of EBM (4% FBS) containing various doses of Z-VVL-CHO, OM99-2, P10-P4′statV, DAPT, or L-685,458 as indicated in the figure legends (the culture medium was changed every 3 days). Pictures were taken at day 4, 5 and 6 using a 4×objective. Microvessel outgrowth area was quantified using the Image Pro Plus software. Briefly, ring cultures were photographed using a digital video camera linked to an Olympus BX60 microscope. The outgrowth area was delineated and measured with the Image Pro Plus software by using a strategy of microvessel outgrowth detection based on difference in color intensities between the outgrowths, the Matrigel and the artery ring. The artery rings were manually selected and excluded from the area of measurement and the color intensity threshold was adjusted to selectively measure the area occupied by the microvessel outgrowths. Results were expressed as a percentage of the area occupied by microvessel outgrowths at day 4 in control condition.

[2] = tested on: aspartyl protease cathepsin; details: cited from earlier work
[3] = tested on: presenilin; details: cited from earlier work
[4] = tested on: Human middle cerebral artery endothelial cells; assay: capillary morphogenesis assay; format: cell-based
Experimental: Two hundred μl of Matrigel were placed into each well of a 24-well culture plate at 4° C. and allowed to polymerize by incubation at 37° C. Human middle cerebral artery endothelial cells (5×104) were seeded on the Matrigel in 1 ml of EBM containing 4% fetal calf serum. The cells were incubated at 37° C. for 20 hours in a humidified 5% CO2 atmosphere in the presence or absence of various doses of γ-secretase and β-secretase inhibitors as indicated in the figure legends. The experiments were performed in quadruplicate for each treatment condition. For each culture, 2 randomly chosen fields were photographed using a 4×objective. An experimenter unaware of the different treatments measured the total length of tube structures in each photograph using the Image Pro Plus software (Media Cybernetic, Inc., Md.). Capillary network lengths for the different treatment conditions were expressed as the percentage of capillary network lengths obtained in the control condition.

[5] = target: γ-secretase; details: cited from earlier work
[6] = tested on: human brain endothelial cells; assay: proliferation of human brain endothelial cells (Quick cell proliferation assay kit); format: cell-based; details: various doses, 24 hours
Experimental: (§1) Primary cultures of human brain endothelial cells were plated at a density of 10^4 cells/[…] of EBM 4% in 96 wells culture plates and treated with various doses of γ-secretase and β-secretase inhibitors as indicated in the figure legends. Following 24 hours in culture, the EBM covering the cells was removed and assayed for Lacticodehydrogenase (LDH) activity using the cytotoxicity detection kit (Roche Diagnostic Corporation, Ind.). Cells were covered with […] of EBM 4% and cellular proliferation measured using the Quick cell proliferation assay kit (Biovision Research Products, Calif.).

[7] = tested on: human brain endothelial cells; assay: viability of human brain endothelial cells (LDH activity in culture medium); format: cell-based; details: 24 hours; for cellular toxicity / viability of human brain endothelial cells versus control: doses employed; for LDH activity in the culture medium, ANOVA main effect: various doses
Experimental: as §1

[8] = tested on: APP; assay: α-sAPP secretion by human brain endothelial cells (immunoprecipitation, immunoblotting); format: cell-based; details: 5 μM, 24 hours
Experimental: (§2) Confluent human brain endothelial cells (grown on 75 cm2 flasks with EBM 4% FBS medium) were treated for 24 hours with 5 μM of Z-VVL-CHO, 5 μM of L-685,458, 5 μM of OM99-2, 5 AM of DAPT or went untreated (control). Experiments were done in quadriplicate for each treatment condition. 6E10 (Signet), a mAb that recognizes residues 1-17 of human Aβ (Van Nostrand et al., Nature, 341, 546-549, 1989) was used to immunoprecipitate soluble APP generated following cleavage by α-secretase from cell culture medium. Immunoprecipitated material was resolved on a 4-20% gradient SDS-PAGE, transferred to PVDF membranes and immunodetected with mAb 22C11 (Roche Diagnostics) that recognizes the amino acids 66-81 of the N-terminal portion of APP (Hibich, C., J. Biol. Chem., 268, 26571-26577, 1993). Human brain endothelial cells were lysed on ice using MPERTM reagent (Pierce) supplemented with 1 mM PMSF and 1 mM of sodium-orthovanadate. Samples were sonicated and centrifuged at 10,000 g for 30 min at 4° C. The protein content of the lysates was determined using the BCA Protein assay kit (Pierce). Total lysates ([…] of protein/sample) were separated on a 4-20% gradient SDS-PAGE and transferred to PVDF membranes and immunoprobed with mAb 22C11 in order to detect full length APP and also immunoprobed with an Anti-APP-CT20 (Calbiochem) antibody which recognizes the amino acid residues 751-770 of the carboxyl terminal region of APP (Pinnix et al. 2001; J. Biol. Chem., 276, 481).

[9] = tested on: APP; assay: carboxyl-terminal APP fragments in human brain endothelial cell lysates (immunoblotting); format: cell-based; details: 5 μM, 24 hours
Experimental: as §2

[10] = tested on: Notch; details: cited from earlier work
[11] = tested on: presenilin 1 and 2; details: cited from earlier work
[12] = angiogenesis in vitro (test not specified); format: cell-based
[13] = tested on: human lung adenocarcinoma (A-549) xenografts; assay: human lung adenocarcinoma A-549 xenografts in nude mice; format: in vivo
Experimental: FIG. 9a: Anti-tumoral effect of the γ-secretase inhibitor DAPT and of the β-secretase inhibitor Z-VLL-CHO on human lung adenocarcinoma (A-549) xenografts growth rates. A-549 cells (8.5×10^6) were injected subcutaneously into both flanks of 8-10 weeks-old nude mice. Mice were injected intraperitoneally with either the vehicle, 5 mg/Kg of body weight of the β-secretase inhibitor Z-VLL-CHO or 10 mg/Kg of body weight of the γ-secretase inhibitor DAPT, starting when tumors had reached a mean tumor volume of approximately 200 mm^3 (day 21 post implantation). Injections were given everyday for 12 days. […] FIG. 9b: Representative pictures of sections of lung adenocarcinoma tumors immunostained with CD31 antibodies. FIG. 9c: Histogram depicting the quantification of the vascularization of lung adenocarcinoma tumors.
FIG. 10: Anti-tumoral effect of the γ-secretase inhibitor JLK-6 on human lung adenocarcinoma (A-549) xenografts growth rates. A-549 cells (8.5×10^6) were injected subcutaneously into both flanks of 8-10 weeks-old nude mice. Mice were injected intraperitoneally everyday from Day 16 (when the tumors reached a volume of approximately 150 mm^3) with either the vehicle or 5 mg/Kg of body weight of the γ-secretase inhibitor JLK-6.
The human glioblastoma U-87 MG and human lung adenocarcinoma A-549 cell lines were obtained from American Tissue Culture Type Collection (Manassas, Va.) and were grown in DMEM containing 1×penicilline-streptomycine-fungizone and 10% fetal bovine serum at 37° C. in a humidified atmosphere of 5% CO2. Tumor cells (6×106) in 100 μl of PBS were inoculated subcutaneously into both flanks of 8-10-week-old female nude mice (Harland). Tumor volume (in mm^3) was determined using the formula (length×width^2)/2, where length was the longest axis and width the measurement at right angles to the length (Clarke et al. 2000). When the tumor volumes reached approximately 150 mm^3, animals were treated intraperitoneally everyday with 100 μl of 50% DMSO/H2O (vehicle group), 5 mg/Kg of body weight of Z-VLL-CHO (β-secretase inhibitor), 5 mg/Kg of JLK-6 (γ-secretase inhibitor) or with 10 mg/Kg of body weight of DAPT. Data were expressed as mean tumor volume±S.E for each treatment group.
At the completion of the study, animals were humanely euthanized and tumors were harvested and fixed in paraformaldehyde 4% overnight at 4° C. After paraffin embedding in an automated tissue processing Sakura Tissue-Tek (E150) (Torrence, Calif.), samples were cut into 5 μm sections, deparafinized, and rehydrated through a graded series of alcohol. Sections were treated with 0.02 mg/ml Proteinase K (Gentra Systems, MN) for 15 minutes at 37° C. to allow for proper antigen retrieval, washed several times in PBS and incubated for 15 minutes in a 0.3% solution of hydrogen peroxide. Sections were blocked and then immunostained with a 1:40 dilution of a PECAM-1 antibody (BD-Pharmingen, CA) overnight at 4° C. in a humidification chamber. Vector ABC Kits (Vector Laboratories Inc, CA) where used following the manufacturer's instruction for the immunostaining. Quantification of tumor vascularization was performed using the stereological dissector method. Briefly, forty consecutive sections were taken from a randomly chosen starting point in each tumor. Five sections for each tumor were selected for stereology by taking one section every eight sections. A dissector counting frame was used with inclusion and exclusion lines throughout the reference area. Vessel count was performed at ×400 magnification with the use of an Olympus microscope connected to a digital video camera. Microvessels were counted in the dissector frame by an experimenter unaware of the different treatment conditions. For each tumor an average vessel count per area of dissector frame was determined. A vascular index was calculated by expressing the vessel count as a percentage of the vessel count in the vehicle treatment condition.

[14] = target: BACE (Homo sapiens, UniProt P56817); details: cited from earlier work
BACE, sequence (P56817 46-501, species assumed): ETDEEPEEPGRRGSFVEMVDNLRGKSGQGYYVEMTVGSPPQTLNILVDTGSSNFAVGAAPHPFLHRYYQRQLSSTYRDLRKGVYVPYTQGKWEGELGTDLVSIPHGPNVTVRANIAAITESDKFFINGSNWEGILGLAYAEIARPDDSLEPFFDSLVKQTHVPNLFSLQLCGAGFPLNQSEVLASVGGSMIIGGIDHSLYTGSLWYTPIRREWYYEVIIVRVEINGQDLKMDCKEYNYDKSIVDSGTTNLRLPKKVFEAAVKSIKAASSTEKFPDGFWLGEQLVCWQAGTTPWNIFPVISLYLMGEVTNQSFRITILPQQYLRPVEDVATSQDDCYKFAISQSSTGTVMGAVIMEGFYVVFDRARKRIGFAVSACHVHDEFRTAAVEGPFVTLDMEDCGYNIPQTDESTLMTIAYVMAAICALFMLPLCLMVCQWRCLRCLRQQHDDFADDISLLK

[15] = tested on: Aβ; details: cited from earlier work
[16] = target: γ-secretase; details: 7PA2 cells; cited from earlier work

CC(C)CC(NC(=O)C(Cc1ccccc1)CC(O)C(Cc1ccccc1)NC(=O)OC(C)(C)C)C(=O)NC(Cc1ccccc1)C(N)=O [L-685,458, {1S-Benzyl-4R-[1-(1S-carbamoyl-2-phenethylcarbamoyl)-1S-3-methylbutylcarba-moyl]-2R-hydroxy-5-phenyl-pentyl}carbamic acid tert-butyl ester]
area covered by microvessel outgrowths versus control ([1]; 1 μM): inhibited
area covered by microvessel outgrowths versus control ([1]; 5 μM): inhibited
selectivity for γ-secretase than for the aspartyl protease cathepsin [2]: over a hundred-fold greater
binding to presenilin [3]: binds to presenilin
capillary network length / capillary morphogenesis versus control ([4]; 5 μM, 20 hours): potent angiogenic effect
capillary morphogenesis ([4]; low dose): stimulated capillary morphogenesis
pIC50 ([5]; read-out: Ab40 IC50): 7.32
pIC50 ([5]; read-out: Ab42 IC50): 7.17
pIC50 ([5]; read-out: Abtotal IC50): 7.77
proliferation of human brain endothelial cells, dose dependence [6]: dose dependently inhibited
cellular toxicity / viability of human brain endothelial cells versus control [7]: without inducing cellular toxicity
LDH activity in the culture medium, ANOVA main effect [7]: no main effect
secretion of α-sAPP [8]: not
accumulation of carboxyl-terminal APP fragments (APP CTF) [9]: stimulates
accumulation of carboxyl-terminal APP fragments (APP CTF) ([9]; listed as L-685-485): promoted the accumulation
Notch intracellular domain production [10]: blocks

CC(C)C[C@H](NC(=O)[C@H](CC(N)=O)NC(=O)[C@@H](NC(=O)[C@@H](N)CCC(=O)O)C(C)C)[C@@H](O)CC(=O)N[C@H](C(=O)N[C@@H](C)C(=O)N[C@@H](CCC(=O)O)C(=O)N[C@@H](Cc1ccccc1)C(N)=O)C(C)C [GL189, H-Glu-Val-Asn-Statine-Val-Ala-Glu-Phe-NH] (H-EVN[Sta]VAEF-NH2)
cellular toxicity / viability of human brain endothelial cells versus control [7]: without affecting their viability

COc1oc(=O)c2cc(N)ccc2c1Cl [JLK-6, 7-amino-4-chloro-3-methoxyisocoumarin]
proliferation of human brain endothelial cells, dose dependence [6]: dose dependently inhibited
proteolysis of presenilin 1 and 2 [11]: does not affect
cellular toxicity / viability of human brain endothelial cells versus control [7]: without inducing cellular toxicity
processing of Notch [10]: does not affect
angiogenesis in vitro [12]: appears to reduce angiogenesis
vascularization of A-549 tumors ([13]; 5 mg/Kg intraperitoneally): inhibited
growth (tumor volume) of A-549 xenografts versus vehicle ([13]; 5 mg/Kg intraperitoneally everyday from Day 16): inhibited; also recorded: significantly inhibits the growth; also recorded: inhibit the growth

CC(C)C[C@H](NC(=O)[C@H](CC(N)=O)NC(=O)[C@@H](NC(=O)[C@@H](N)CCC(=O)O)C(C)C)[C@@H](O)C[C@@H](C)C(=O)N[C@@H](C)C(=O)N[C@@H](CCC(=O)O)C(=O)N[C@@H](Cc1ccccc1)C(=O)O [OM99-2, Glu-Val-Asn-Leu-ψ-Ala-Ala-Glu-Phe [ψ denotes replacement of CONH by (S)—CH(OH)CH2]] (H-EVN[LeuΨ(S-CHOHCH2)Ala]AEF-OH)
cellular toxicity / viability of human brain endothelial cells versus control [7]: without affecting their viability
LDH activity in the culture medium, ANOVA main effect [7]: significant main effect

H-Lys-Thr-Glu-Glu-Ile-Ser-Glu-Val-Asn-Stat-Val-Ala-Glu-Phe-OH [P10-P4′statV, H-Lys-Thr-Glu-Glu-Ile-Ser-Glu-Val-Asn-Stat-Val-Ala-Glu-Phe-OH [Stat=(3S,4S)-Statine]]
sprouting of microvessel outgrowths, overall / dose dependence ([1]; day 4, 5 and 6): dose dependently and potently inhibited
pIC50 [14]: 7.52

COC(=O)C(NC(=O)C(C)NC(=O)Cc1cc(F)cc(F)c1)c1ccccc1 [DAPM, N-[N-3,5-difluorophenacetyl]-L-alanyl-S-phenylglycine methyl ester]
early Aβ oligomerization (Aβ dimer and trimer formation) [15]: prevents
pIC50 [16]: ~8.00
proliferation of human brain endothelial cells, dose dependence [6]: dose dependently inhibited
cellular toxicity / viability of human brain endothelial cells versus control [7]: without inducing cellular toxicity
